Measurements reported in PubChem BioAssay AID330 (DTP/NCI, 2004).
Values joined by “and” are separate entries in the source; they are usually repeats but may differ in a detail not shown here. Identical values can stand only once. Toxic doses and inconclusive results are not listed.

Tested on: P388 leukemia ip, CD2F1 mice, survival T/C
Experiment: NCI In Vivo Anticancer Drug Screen. Data for tumor model P388 Leukemia (intraperitoneal) in CD2F1 (CDF1) mice
Conditions: endpoint: median survival time, higher = longer survival
How it was run: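 Mice carrying the transplanted tumor received test compound or vehicle. Survival was recorded in each group, and the value is the treated-group measurement divided by that of the vehicle-treated control group.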

[1] = dose: 60.0 mg/kg/injection, schedule: Q01DX005 (ip), vehicle: saline
[2] = dose: 120.0 mg/kg/injection, schedule: Q01DX005 (ip), vehicle: saline
[3] = dose: 240.0 mg/kg/injection, schedule: Q01DX005 (ip), vehicle: saline
[4] = dose: 50.0 mg/kg/injection, schedule: Q01DX009 (ip), vehicle: saline with Tween-80
[5] = dose: 50.0 mg/kg/injection, schedule: Q01DX005 (ip), vehicle: saline with Tween-80
[6] = dose: 100.0 mg/kg/injection, schedule: Q01DX005 (ip), vehicle: saline with Tween-80
[7] = dose: 200.0 mg/kg/injection, schedule: Q01DX005 (ip), vehicle: saline with Tween-80
[8] = dose: 50.0 mg/kg/injection, schedule: Q01DX009 (ip), vehicle: Klucel (hydroxypropylcellulose) (HPC)
[9] = dose: 200.0 mg/kg/injection, schedule: Q01DX009 (ip), vehicle: saline with Tween-80
[10] = dose: 50.0 mg/kg/injection, schedule: Q01DX009 (ip), vehicle: saline
[11] = dose: 100.0 mg/kg/injection, schedule: Q01DX009 (ip), vehicle: saline
[12] = dose: 200.0 mg/kg/injection, schedule: Q01DX009 (ip), vehicle: saline
[13] = dose: 50.0 mg/kg/injection, schedule: Q01DX005 (ip), vehicle: Klucel (hydroxypropylcellulose) (HPC)
[14] = dose: 100.0 mg/kg/injection, schedule: Q01DX005 (ip), vehicle: Klucel (hydroxypropylcellulose) (HPC)

Compound: CCC(=O)Cc1nc2n(c1O)C(=N)N=N2
- T/C [1]: 98 % of control
- T/C [2]: 98 % of control
- T/C [3]: 98 % of control

Compound: C[C@H](N)[C@@H](O)/C=C/c1ccccc1
- T/C (dose: 10.0 mg/kg/injection, schedule: Q01DX005 (ip), vehicle: saline): 98 % of control
- T/C (dose: 20.0 mg/kg/injection, schedule: Q01DX005 (ip), vehicle: saline): 100 % of control
- T/C (dose: 40.0 mg/kg/injection, schedule: Q01DX005 (ip), vehicle: saline): 100 % of control

Compound: CSC(C(C)=O)c1ccccc1 (stereo unspecified)
- T/C (dose: 25.0 mg/kg/injection, schedule: Q01DX009 (ip), vehicle: saline with Tween-80): 100 % of control
- T/C [4]: 100 % of control
- T/C (dose: 100.0 mg/kg/injection, schedule: Q01DX009 (ip), vehicle: saline with Tween-80): 104 % of control

Compound: CC(C)CN(CC(C)C)c1nn[nH]n1
- T/C [5]: 103 % of control
- T/C [6]: 100 % of control
- T/C [7]: 103 % of control

Compound: COC1/C=C/OC2(C)Oc3c(C)c(O)c4c(c3C2=O)C(N)=C(NC2CC2)C(=NC(=O)/C(C)=C\C=C\C(C)C(O)C(C)C(O)C(C)C(OC(C)=O)C1C)C4=O (stereo unspecified)
- T/C (dose: 25.0 mg/kg/injection, schedule: Q01DX009 (ip), vehicle: Klucel (hydroxypropylcellulose) (HPC)): 102 % of control
- T/C [8]: 103 % of control
- T/C (dose: 100.0 mg/kg/injection, schedule: Q01DX009 (ip), vehicle: Klucel (hydroxypropylcellulose) (HPC)): 119 % of control

Compound: COc1ccccc1CC(C)N (stereo unspecified)
- T/C (dose: 20.0 mg/kg/injection, schedule: Q04DX003 (ip), vehicle: saline): 110 % of control
- T/C (dose: 40.0 mg/kg/injection, schedule: Q04DX003 (ip), vehicle: saline): 105 % of control
- T/C (dose: 80.0 mg/kg/injection, schedule: Q04DX003 (ip), vehicle: saline): 105 % of control

Compound: O=C(NC(=S)Nc1ccccc1)c1ccccc1
- T/C (dose: 9.4 mg/kg/injection, schedule: Q01DX009 (ip), vehicle: Klucel (hydroxypropylcellulose) (HPC)): 106 % of control
- T/C (dose: 18.75 mg/kg/injection, schedule: Q01DX009 (ip), vehicle: Klucel (hydroxypropylcellulose) (HPC)): 101 % of control
- T/C (dose: 37.5 mg/kg/injection, schedule: Q01DX009 (ip), vehicle: Klucel (hydroxypropylcellulose) (HPC)): 94 % of control
- T/C (dose: 75.0 mg/kg/injection, schedule: Q01DX009 (ip), vehicle: Klucel (hydroxypropylcellulose) (HPC)): 96 % of control

Compound: O=C(Cc1n[nH]c(=S)nc1CC(=O)c1ccccc1)c1ccccc1
- T/C (dose: 60.0 mg/kg/injection, schedule: Q01DX005 (ip), vehicle: saline with Tween-80): 98 % of control
- T/C (dose: 120.0 mg/kg/injection, schedule: Q01DX005 (ip), vehicle: saline with Tween-80): 97 % of control
- T/C (dose: 240.0 mg/kg/injection, schedule: Q01DX005 (ip), vehicle: saline with Tween-80): 105 % of control

Compound: c1ccc2c3c(ccc2c1)OCN(C12CC4CC(CC(C4)C1)C2)C3
- T/C (dose: 100.0 mg/kg/injection, schedule: Q04DX003 (ip), vehicle: saline with Tween-80): 100 % of control
- T/C (dose: 200.0 mg/kg/injection, schedule: Q04DX003 (ip), vehicle: saline with Tween-80): 110 % of control
- T/C (dose: 400.0 mg/kg/injection, schedule: Q04DX003 (ip), vehicle: saline with Tween-80): 110 % of control

Compound: CCCCCCCCC#CCCCCCCCCCCCC(=O)O
- T/C [4]: 88 % of control
- T/C [9]: 90 % of control

Compound: CNC(=O)N(C)CP(=O)(CN(C)C(=O)NC)CN(C)C(=O)NC
- T/C [10]: 97 % of control
- T/C [11]: 100 % of control
- T/C [12]: 99 % of control

Compound: CC(C)c1cc(=O)c2cc3[nH]c4ccccc4c3cc2[nH]1
- T/C [5]: 97 % of control
- T/C [6]: 87 % of control
- T/C [7]: 90 % of control

Compound: CCCC1CCCCN1C (stereo unspecified)
- T/C (dose: 3.12 mg/kg/injection, schedule: Q01DX005 (ip), vehicle: saline with Tween-80): 105 % of control
- T/C (dose: 6.25 mg/kg/injection, schedule: Q01DX005 (ip), vehicle: saline with Tween-80): 105 % of control
- T/C (dose: 12.5 mg/kg/injection, schedule: Q01DX005 (ip), vehicle: saline with Tween-80): 108 % of control
- T/C (dose: 25.0 mg/kg/injection, schedule: Q01DX005 (ip), vehicle: saline with Tween-80): 105 % of control

Compound: O=C1CC2COc3ccc(OCCN4CCCC4)cc3C2=NN1c1ccccc1 (stereo unspecified)
- T/C [5]: 103 % of control
- T/C [6]: 103 % of control

Compound: Nc1c2c(=O)[nH]c(=O)c2c(N)c2c(=O)c3ccccc3c(=O)c12
- T/C [1]: 103 % of control
- T/C [2]: 104 % of control
- T/C [3]: 105 % of control

Compound: CN1CCC1=O
- T/C [10]: 105 % of control
- T/C [11]: 110 % of control
- T/C [12]: 97 % of control

Compound: COCC1(C)CCCC2(C)C1CCC13CCC(OC)CC12O3 (stereo unspecified)
- T/C (dose: 100.0 mg/kg/injection, schedule: Q01DX001 (ip), vehicle: saline): 115 % of control
- T/C (dose: 200.0 mg/kg/injection, schedule: Q01DX001 (ip), vehicle: saline): 106 % of control
- T/C (dose: 400.0 mg/kg/injection, schedule: Q01DX001 (ip), vehicle: saline): 94 % of control

Compound: COc1ccc(CCNC2=C(/C=C\C(=O)O)C(=O)CC2)cc1OC
- T/C (dose: 25.0 mg/kg/injection, schedule: Q01DX001 (ip), vehicle: Klucel (hydroxypropylcellulose) (HPC)): 95 % of control
- T/C (dose: 50.0 mg/kg/injection, schedule: Q01DX001 (ip), vehicle: Klucel (hydroxypropylcellulose) (HPC)): 100 % of control
- T/C (dose: 100.0 mg/kg/injection, schedule: Q01DX001 (ip), vehicle: Klucel (hydroxypropylcellulose) (HPC)): 87 % of control and 92 % of control

Compound: CCN(CCCO)CCCO
- T/C [10]: 102 % of control
- T/C [11]: 93 % of control
- T/C [12]: 95 % of control

Compound: [Cl][Pt+2]([Cl])([Cl])[Cl].[Na+].[S-]c1ncnc2nc[nH]c12.[S-]c1ncnc2nc[nH]c12
- T/C (dose: 132.0 mg/kg/injection, schedule: Q01DX009 (ip), vehicle: saline with Tween-80): 100 % of control
- T/C [9]: 109 % of control

Compound: C1CCNCC1.COc1ccccc1C(=O)[CH-]C(=O)C(F)(F)F.COc1ccccc1C(=O)[CH-]C(=O)C(F)(F)F.COc1ccccc1C(=O)[CH-]C(=O)C(F)(F)F.COc1ccccc1C(=O)[CH-]C(=O)C(F)(F)F.[Eu+3]
- T/C [8]: 94 % of control
- T/C (dose: 200.0 mg/kg/injection, schedule: Q01DX009 (ip), vehicle: Klucel (hydroxypropylcellulose) (HPC)): 91 % of control

Compound: C=C(C)COc1ccc(C)cc1Br
- T/C [13]: 101 % of control
- T/C [14]: 103 % of control
- T/C (dose: 200.0 mg/kg/injection, schedule: Q01DX005 (ip), vehicle: Klucel (hydroxypropylcellulose) (HPC)): 113 % of control

Compound: COc1ccc(C[n+]2ccccc2C#N)cc1OC
- T/C [13]: 103 % of control
- T/C [14]: 107 % of control

Compound: C=CCN1CCc2c([nH]c3cc(OC)ccc23)C1C (stereo unspecified)
- T/C (dose: 9.0 mg/kg/injection, schedule: Q01DX005 (ip), vehicle: Klucel (hydroxypropylcellulose) (HPC)): 95 % of control
- T/C (dose: 18.0 mg/kg/injection, schedule: Q01DX005 (ip), vehicle: Klucel (hydroxypropylcellulose) (HPC)): 94 % of control
- T/C (dose: 36.0 mg/kg/injection, schedule: Q01DX005 (ip), vehicle: Klucel (hydroxypropylcellulose) (HPC)): 89 % of control
- T/C (dose: 72.0 mg/kg/injection, schedule: Q01DX005 (ip), vehicle: Klucel (hydroxypropylcellulose) (HPC)): 94 % of control
- T/C (dose: 144.0 mg/kg/injection, schedule: Q01DX005 (ip), vehicle: Klucel (hydroxypropylcellulose) (HPC)): 94 % of control
